In patent US9266897B2, “Derivatives of protoberberine biological alkaloids and use of same inhibiting ulcerative colitis” (Institute of Materia Medica, Chinese Academy of Medical …, priority 2011, dated 2016):
Entries after “also recorded” stand apart in the source; their conditions may differ. Marks after values point to notes of the source that are not given here. Blank lines part the entries; values can stand above or below the compound they belong to.

Experiments:
xbp1 upstream promoter = test: Transcriptional activation of pGL3-pxbp1 (dual luciferase reporter gene) in IEC-6 cells; format: cell-based; details: Rattus norvegicus, IEC-6 cells transfected with pGL3-pxbp1, 36 h-48 h, read-out: EC50 of transcriptional activation effect on xbp1 gene
Description: (§1) (1) Method: IEC-6 cells in the period of vigorous growth were seed in 48 well plate at a density of 5×10^4 to disperse the cells uniform and then it was placed in a humidifying cell incubator filled with 5% CO2 at 37° C. to incubate. Plasmid transfection (0.6 μg/well) was carried out when the cells confluencing up to 70%-80%. After 4 h, each compound of 1×10^−5 mol/L was added into these wells (n=3), respectively, and incubated for another 36 h-48 h together with existing transfected cells. Luciferase activity detection on test samples was proceeded using dual luciferase report gene detection kit (Promega, USA).
as §1, with “logarithmic phase” for “vigorous growth”, “different concentrations” for “each compound”, “compounds 1, 2, 7, and 10 were” for “1×10^−5 mol/L was”, “added” for “added into these wells”

[1] = system: SD rats with acetic acid-induced UC; test: Acetic acid-induced acute UC in SD rats; format: in vivo
Description: (§2) (1) Method: In vivo test was carried out according to the literature: Y. Yoshioka, H. Akiyama, M. Nakano, T. Shoji, T. Kanda, Y. Ohtake, T. Takita, R. Matsuda, T. Maitani. Orally administered apple procyanidins protect against experimental inflammatory bowel disease in mice, international immunopharmacology, 2008, 1802-1807.
Disease activity index (DAI) is evaluated by weight loss, shape of stool, hematochezia, and other indicators; macroscopic score of colon tissue is evaluated by intestinal mucosal hyperemia, edema of intestinal wall, ulcer size, and other indicators. The lower the DAI and macroscopic score is, the more close to the normal physiological state. In Table 1: **p<0.01 when compared with the normal control group; ##p<0.01 when compared with the model group.

[2] = system: C57/blc mice with DSS-induced UC; test: DSS-induced acute UC in C57/blc mice; format: in vivo; details: for colon histopathology (inflammatory lesion): HE×200
Description: as §2
DAI is evaluated by weight loss, shape of stool, hematochezia, and other indicators; macroscopic score of colon tissue is evaluated by intestinal mucosal hyperemia, edema of intestinal wall, ulcer size, and other indicators. The lower the DAI and macroscopic score is, the more close to the physiological state of the normal animal. In Table 3: **p<0.01 when compared with the normal control group; ##p<0.01 when compared with the model group.

[3] = Table 5, 300 mg/kg, model 3.39 ± 0.64
[4] = Table 5, 300 mg/kg, model 5.69 ± 1.12
[5] = Table 7, 300 mg/kg, model 3.85 ± 0.34
[6] = Table 7, 300 mg/kg, model 5.59 ± 1.01

EC50 (xbp1 upstream promoter): 221 nM
Compound: CC(=O)CC1c2c(ccc3c2OCO3)C=C2c3cc4c(cc3CCN21)OCO4 (racemic) [Compound 7, (±)-8-acetonyldihydrocoptisine]
macroscopic and histopathological results of colon tissue ([1]; 300 mg/kg): good therapeutic effect on UC
body weight change value compared with before administration (decreased by) ([1]; 300 mg/kg, model group decreased by 19.2%): 10%
macroscopic score ([1]; Table 1, 300 mg/kg): 2.05 ± 0.45##
DAI ([1]; Table 1, 300 mg/kg, model 3.15 ± 0.45): 1.15 ± 0.22##
disease activity index (DAI) inhibitory rate in UC model ([2]; 500 mg/kg): 64%
colon histopathology (inflammatory lesion) ([2]; HD group 500 mg/kg): significant improvement on the colon inflammatory lesion; also recorded: the lesion of inflammatory bowel diseases is more significantly improved
colon histopathology (inflammatory lesion) ([2]; LD group 125 mg/kg): the inflammatory lesions of colon tissue also has a partial remission
colon histopathology (inflammatory lesion) ([2]; MD group 250 mg/kg): the inflammatory lesions of colon tissue also has a partial remission
Body weight (g) x ± SD end ([2]; Table 2, HD 500 mg/kg): 21.57 ± 1.5 g
Body weight (g) x ± SD end ([2]; Table 2, MD 250 mg/kg): 20.54 ± 2.1 g
DAI ([2]; Table 3, HD 500 mg/kg, model 3.33 ± 0.54): 1.33 ± 0.31##
macroscopic score of colon tissue ([2]; Table 3, HD 500 mg/kg, model 5.54 ± 1.23): 2.05 ± 0.28##
DAI ([2]; Table 3, LD 125 mg/kg, model 3.33 ± 0.54): 3.01 ± 0.38
macroscopic score of colon tissue ([2]; Table 3, LD 125 mg/kg, model 5.54 ± 1.23): 4.93 ± 0.61
DAI ([2]; Table 3, MD 250 mg/kg, model 3.33 ± 0.54): 2.01 ± 0.27##
macroscopic score of colon tissue ([2]; Table 3, MD 250 mg/kg, model 5.54 ± 1.23): 3.30 ± 0.66##

EC50 (xbp1 upstream promoter): 7.06 nM
Compound: C1=C2c3cc4c(cc3CCN2Cc2cc3c(cc21)OCO3)OCO4 [Compound 2, dihydropseudocoptisine]
disease activity index (DAI) inhibitory rate in UC model ([2]; 300 mg/kg): 80%
Body weight (g) x ± SD end ([2]; Table 6, 300 mg/kg): 26.17 ± 1.5 g
DAI [2, 5]: 1.05 ± 0.26##
macroscopic score of colon tissue [2, 6]: 2.94 ± 0.21##

EC50 (xbp1 upstream promoter): 47.3 nM
Compound: C=C(C(=O)CC)c1c2c(OC)c(OC)ccc2c(C)c2[n+]1CCc1cc3c(cc1-2)OCO3 [Compound 10]

More lines, now with the values behind:

Compound: C1=C2c3cc4c(cc3CCN2Cc2c1ccc1c2OCO1)OCO4 [Compound 1, dihydrocoptisine]
EC50 (xbp1 upstream promoter): 2.29 nM
disease activity index (DAI) inhibitory rate in UC model ([2]; 300 mg/kg): 69%
Body weight (g) x ± SD end ([2]; Table 4, HD 500 mg/kg): 19.87 ± 1.0 g
Body weight (g) x ± SD end ([2]; Table 4, LD 75 mg/kg): 21.15 ± 1.1 g
Body weight (g) x ± SD end ([2]; Table 4, MD 250 mg/kg): 19.95 ± 1.6 g
DAI [2, 3]: 2.33 ± 0.11##
macroscopic score of colon tissue [2, 4]: 2.66 ± 0.46##
DAI ([2]; Table 5, LD 75 mg/kg, model 3.39 ± 0.64): 2.99 ± 0.14#
macroscopic score of colon tissue ([2]; Table 5, LD 75 mg/kg, model 5.69 ± 1.12): 4.93 ± 0.61
DAI ([2]; Table 5, MD 150 mg/kg, model 3.39 ± 0.64): 1.81 ± 0.27##
macroscopic score of colon tissue ([2]; Table 5, MD 150 mg/kg, model 5.69 ± 1.12): 2.01 ± 0.16##

Compound: O=C(O)c1cc(/N=N/c2ccc(S(=O)(=O)Nc3ccccn3)cc2)ccc1O [SASP, reference compound]
disease activity index (DAI) inhibitory rate in UC model ([2]; 300 mg/kg): 32%
Body weight (g) x ± SD end ([2]; Table 2, 300 mg/kg): 20.09 ± 0.9 g
DAI ([2]; Table 3, 300 mg/kg, model 3.33 ± 0.54): 2.27 ± 0.43##
macroscopic score of colon tissue ([2]; Table 3, 300 mg/kg, model 5.54 ± 1.23): 3.24 ± 0.77##
Body weight (g) x ± SD end ([2]; Table 4, 300 mg/kg): 21.15 ± 0.6 g
DAI [2, 3]: 2.54 ± 0.23##
macroscopic score of colon tissue [2, 4]: 2.95 ± 0.52##
Body weight (g) x ± SD end ([2]; Table 6, 300 mg/kg): 25.09 ± 0.9 g
DAI [2, 5]: 2.27 ± 0.43##
macroscopic score of colon tissue [2, 6]: 3.24 ± 0.77##
colon histopathology (inflammatory lesion) ([2]; positive drug SASP group): improvement of visible colitis lesions and partial recovery of structure of each layer
